Results on 16 compounds are retold here after patent US20250346613A1, “BORIC ACID PROTEASOME INHIBITOR AND USE THEREOF” (ARTIVILA BIOPHARMA, priority 2022, published 2025).

What all share (type): cell-based
Assay [1] addresses T1, β5i subunit of the 20S proteasome (Homo sapiens, UniProt P20618+P28062).
T1 construct: The proteasome tested in the present disclosure was derived from Raji cells; endogenous in cells; host or cells: Raji cells
Nature of the assay: Proteasome inhibitory activity, β5i subunit (Raji cells treated with compound, lysed, Ac-ANW-AMC substrate). Conditions: proteasome from Raji cells incubated with compound 4 h. The text has this: (§1) In the present disclosure, the fluorescent peptide substrate Ac-Ala-Asn-Trp-AMC (abbreviated as Ac-ANW-AMC) and the […] kit containing a fluorescent peptide substrate Suc-Leu-Leu-Val-Tyr-AMC (abbreviated as Suc-LLVY-AMC) (Promega, Item No. G8660) were used to detect the activities of the β5i subunit and β5c subunit of the 20S proteasome, respectively.
(§2) The proteasome tested in the present disclosure was derived from Raji cells, the fluorescent substrate Ac-ANW-AMC was purchased from Roche company, and other reagents were purchased from Sigma company. The experimental system was divided into two parts of cell lysis system and enzyme reaction system. […] The starting concentration of the compound (inhibitor) was 1 μM. It was diluted in a 3-fold serial dilution to a total of 8 concentrations, that is, the administration concentration can be 1 μM, 0.333 μM, 0.111 μM . . . , respectively, and the specific experimental process was described below.
(§3) Raji cells (1×10^6 cells) cryopreserved in liquid nitrogen were thawed rapidly in a water bath at 37° C. The cell pellet was transferred to a 15 mL centrifuge tube, added with 9 mL of fresh medium (Gibco RPMI1640 added with 10% fetal bovine serum and 1% double antibiotics), centrifuged at 120 g for 5 min, inoculated to 25 mL cell culture flasks, and passaged once every 2-3 days.
(§4) The compound was weighed and dissolved in DMSO to a concentration of 10 mM. The compound was then sequentially diluted to concentrations of 200 μM, 66.67 μM, 22.22 μM, 7.41 μM, 2.47 μM, 0.82 μM, 0.27 μM, and 0.091 μM with fresh medium. Raji cells in a good growth status were inoculated into a 48-well cell culture plate at 7×10^5 cells/mL.
(§5) Raji cells in a good growth status were taken and counted. They were then inoculated to a 48-well cell culture plate at 7×10^5 cells/mL. Each 5 μL of the various concentrations of diluted compounds above were taken and added to the culture plate inoculated with cells, and the lowest concentration of compound was 0 μM. The drug bortezomib (Velcade) and ONX-0914 were used as the positive control compounds. All cells were incubated at 37° C. for 4 h.
(§6) The compound-treated cells were sequentially transferred into 1.5 mL centrifuge tubes, centrifuged at 10000 rpm for 2 min, and the supernatants were removed. The cell pellet was resuspended in 1 mL of PBS, centrifuged at 10000 rpm for 2 min, and the supernatant was removed. Cells were resuspended by adding 100 μL of cell lysate (50 mM Tris of pH 7.5, 150 mM NaCl, 5 mM MgCl2, 5 mM ATP, 1 mM DTT, 0.01% NP-40, 1 mM Digitonin, and Cocktail), placed in an ice bath for 30 min, and centrifuged at 13000 rpm for 10 min.
(§7) 2 mg of fluorescent peptide substrate AC-ANW-AMC was dissolved in 424.7 μL of DMSO to obtain an 8 mM stock solution, and stored at −20° C. The stock solution was diluted 100-fold to a final concentration of […] for use in the reaction system. The fluorescent peptide substrate Suc-LLVY-AMC was prepared according to the instructions of the Promega kit.
(§8) Each 20 μL of the prepared proteasome solution above was added to a 96-well white luciferase microplate and added with 25 μL of AC-ANW-AM substrate buffer solution (50 mM Tris of pH 7.5, 150 mM NaCl, 5 mM MgCl2, 5 mM ATP, 80 uM Ac-ANW-AMC and 1 mM DTT) and 25 μL of Suc-LLVY-AMC substrate buffer solution for 10 min of reaction at 37° C. in the dark. Fluorescence values were read at 345 nm/445 nm by using a fluorence microplate reader.
(§9) The data were exported and the inhibition rate in percentage was calculated according to the following formula: Inhibition rate=(maximum signal value-compound signal value)/(maximum signal value−blank signal value)×100%.
(§10) Where the maximum signal was obtained from cell lysates treated with DMSO only, and the blank signal was obtained from wells containing only lysates.

Assay [2] addresses T2, β5c subunit of the 20S proteasome (Homo sapiens, UniProt P20618+P28074).
T2 construct: The proteasome tested in the present disclosure was derived from Raji cells; endogenous in cells; host or cells: Raji cells
Nature of the assay: Proteasome inhibitory activity, β5c subunit (Raji cells treated with compound, lysed, Suc-LLVY-AMC substrate). As to conditions: proteasome from Raji cells incubated with compound 4 h.
Source text: as §1, §2, §3, §4, §5, §6, §7, §8, §9, §10

In a further assay the test system is MM.1S cell strain. The assay can be described thus: Inhibitory activity of cell strain (CellTiter-Glo). As to conditions: Homo sapiens, MM1.S, 72 h incubation. As for the experimental part:
The cells used in this experiment were MM.1S cell strain and the detection reagent was CellTiter-Glo (Promega). […] The experimental process was described below. MM.1S cells in the logarithmic growth phase and in a good status were digested into individual cells by trypsin, centrifuged to remove the supernatant, and counted. Cells were diluted and 100 μL of cell suspension per well was added to a 96-well enzyme-coated plate at 1×10^5 cells per well. The wells containing only RPMI1640 complete medium were set as blank control. The 96-well plate was transferred to a 37° C. incubator containing 5% CO2 for 24 h of incubation.
The compound was accurately weighed and dissolved in DMSO to a concentration of 10^−2 M. 10 μL of compound was pipetted to 190 μL of DMSO to given a 5×10^−4 M compound. 6 μL of the compound (5×10^−5 M) was pipetted to a new 96-well microplate containing 194 μL of RPMI1640 complete medium and diluted in a 3-fold gradient dilution. 50 μL of the diluted compound was transferred to the 96-well microplate containing the cells such that the final compound concentrations were 5×10^−7 M, 1.67×10^−7 M, 5.55×10^−8 M, 1.85×10^−8 M, 6.17×10^−9 M, 2.06×10^−9 M, 6.86×10^−10 M, 2.29×10^−10 M, and 0 M. For the 0 M, no compound was added, and the same concentration of DMSO was added. The marketed drug bortezomib was used as a positive control. The 96-well microplate added with compounds was placed in the 37° C. incubator for 72 h of incubation.
At the predetermined detection time, the 96-well microplate to be detected was placed at room temperature, added with 40 μL of detection reagent (CellTiter-Glo) per well, and covered with a dark lid or piece of aluminium foil. The contents were mixed on an orbit oscillator for 10 min for complete cell lysis, with a vibration speed of 150 rpm. Luminescence values were detected on a multifunctional microplate reader (BioTek Synergy H1 Hybrid Multi-Mode Reade).
The data were exported and the percentage inhibition was calculated according to the following formula: Inhibition rate=(maximum signal value-compound signal value)/(maximum signal value−blank signal value)×100%, • wherein maximum signal was obtained from alone DMSO-treated cells, and blank signal was obtained from wells containing only culture medium.

As a reminder, the IC50 is the concentration needed to halve the response being measured.

On to `COc1cccc(CNC(=O)C(Cc2ccccc2)C(=O)N[C@@H](Cc2ccc(C)cc2)B(O)O)c1` (stereo partly drawn) [Example 65, ((1R)-1-(2-benzyl-3-((3-methoxybenzyl)amino)-3-oxopropionamido)-2-(p-tolyl)ethyl)boric acid], for which the IC50 (in assay [1]; in assay [2]; in the assay on MM.1S cell strain) was ≤ 50 nM in each case.
For the compound `COc1cccc(CNC(=O)C(CC2CC2)C(=O)N[C@@H](Cc2ccccc2)B(O)O)c1` (stereo partly drawn) [Example 3, ((1R)-1-(2-(cyclopropylmethyl)-3-((3-methoxybenzyl)amino)-3-oxopropionylamimo)-2-phenylethyl)boric acid], the IC50 (in assay [1]; in assay [2]; in the assay with MM.1S cell strain) was ≤ 50 nM throughout.
`CC(C(=O)NCc1cccc(-c2ccccc2)n1)C(=O)N[C@@H](Cc1coc2ccccc12)B(O)O` (stereo partly drawn) [Example 57, ((1R)-2-(benzofuran-3-yl)-1-(2-methyl-3-oxo-3-(((6-phenylpyridin-2-yl)methyl)amino)propionamido)ethyl)boric acid]: the IC50 (in assay [1]; in assay [2]; in the assay on MM.1S cell strain) was ≤ 50 nM throughout.
Regarding `COc1cccc(CNC(=O)C(CC2CC2)C(=O)N[C@@H](Cc2ccc(C)cc2)B(O)O)c1` (stereo partly drawn) [Example 80, ((1R)-1-(2-(cyclopropylmethyl)-3-((3-methoxybenzyl)amino)-3-oxopropionamido)-2-(p-tolyl)ethyl)boric acid], the IC50 (in assay [1]; in assay [2]; in the assay with MM.1S cell strain) was ≤ 50 nM throughout.
As to `CC(C(=O)NCc1cccc(OC(F)(F)F)c1)C(=O)N[C@@H](Cc1coc2ccccc12)B(O)O` (stereo partly drawn) [Example 73, ((1R)-2-(benzofuran-3-yl)-1-(2-methyl-3-oxo-3-((3-(trifluoromethoxy)benzyl)amino)propionamido)ethyl)boric acid], the IC50 (in assay [1]; in assay [2]; in the assay with MM.1S cell strain) was ≤ 50 nM in each case.
In the case of `Cc1ccc(C[C@H](NC(=O)C(C)C(=O)NCc2ccccc2)B(O)O)cc1` (stereo partly drawn) [Example 38, ((1R)-1-(3-(benzylamino)-2-methyl-3-oxopropionamido)-2-(p-tolyl)ethyl)boric acid], the IC50 fell in the range of 50 to 200 nM in assay [1], 50 to 200 nM in assay [2] and 200 to 500 nM with MM.1S cell strain.
In the case of `CC(C)C[C@H](NC(=O)C(C)C(=O)NCc1ccccc1)B(O)O` (stereo partly drawn) [Example 28, ((1R)-1-(3-(benzylamino)-2-methyl-3-oxopropionamido)-3-methylbutyl)boric acid], the IC50 (in assay [1]; in assay [2]; in the assay with MM.1S cell strain) was 50 to 200 nM in each case.
For `Cc1ccc(C[C@H](NC(=O)C(C)C(=O)NCc2cccc(-c3ccccc3)n2)B(O)O)cc1` (stereo partly drawn) [Example 45, ((1R)-1-(2-methyl-3-oxo-3-(((6-phenylpyridin-2-yl)methyl)amino)propionamide)-2-(p-tolyl)ethyl)boric acid], the IC50 (in assay [1]; in assay [2]; in the assay on MM.1S cell strain) was ≤ 50 nM each time.
With `CC(C)C[C@H](NC(=O)C(C)C(=O)NC1CCCCC1)B(O)O` (stereo partly drawn) [Example 41, ((1R)-1-(3-(cyclohexylamino)-2-methyl-3-oxopropionamido)-3-methylbutyl)boric acid], the IC50 was ≤ 50 nM in assay [1], 50 to 200 nM in assay [2] and 50 to 200 nM in the assay with MM.1S cell strain.
In the case of `CC(C)C(C(=O)NCc1ccc(Cl)cc1Cl)C(=O)N[C@@H](Cc1coc2ccccc12)B(O)O` (stereo partly drawn) [Example 89, ((1R)-2-(benzofuran-3-yl)-1-(2-((2,4-dichlorobenzyl)carbamoyl)-3-methylbutanamido)ethyl)boric acid], the IC50 (in assay [1]; in assay [2]; in the assay on MM.1S cell strain) was ≤ 50 nM in each case.
On to `Cc1ccc(C[C@H](NC(=O)C(Cc2ccccc2)C(=O)NCc2ccc3[nH]ccc3c2)B(O)O)cc1` (stereo partly drawn) [Example 90, ((1R)-1-(3-(((1H-indol-5-yl)methyl)amino)-2-benzyl-3-oxopropionamido)-2-(p-tolyl)ethyl)boric acid], for which the IC50 (in assay [1]; in assay [2]; in the assay with MM.1S cell strain) was ≤ 50 nM in each case.
`COc1cccc(CNC(=O)C(C(=O)N[C@@H](Cc2ccc(C)cc2)B(O)O)C(C)C)c1` (stereo partly drawn) [Example 87, ((1R)-1-(2-((3-methoxybenzyl)carbamoyl)-3-methylbutanamido)-2-(p-tolyl)ethyl)boric acid]: the IC50 (in assay [1]; in assay [2]; in the assay on MM.1S cell strain) was ≤ 50 nM each time.
`CC(C(=O)NCc1cccc(-c2ccccc2)n1)C(=O)N[C@@H](Cc1ccc(-c2ccccc2)cc1)B(O)O` (stereo partly drawn) [Example 58]: the IC50 in assay [1] is ≤ 50 nM; in assay [2], ≤ 50 nM; in the assay with MM.1S cell strain, 50 to 200 nM.
For the compound `COc1cccc(CNC(=O)C(Cc2ccccc2)C(=O)N[C@@H](CC(C)C)B(O)O)c1` (stereo partly drawn) [Example 66, ((1R)-1-(2-benzyl-3-((3-methoxybenzyl)amino)-3-oxopropionamido)-3-methylbutyl)boronic acid], the IC50 (in assay [1]; in assay [2]; in the assay with MM.1S cell strain) was ≤ 50 nM throughout.
In the case of `COc1cccc(CNC(=O)C(CC2CCCCC2)C(=O)N[C@@H](Cc2ccc(C)cc2)B(O)O)c1` (stereo partly drawn) [Example 83, ((1R)-1-(2-(cyclohexylmethyl)-3-((3-methoxybenzyl)amino)-3-oxopropionamido)-2-(p-tolyl)ethyl)boric acid], the IC50 in assay [1] was ≤ 50 nM; in assay [2] it was 50 to 200 nM; in the assay with MM.1S cell strain it was > 500 nM.
Consider `O=C(CC(=O)N[C@@H](Cc1coc2ccccc12)B(O)O)NCc1cccc(-c2ccccc2)c1` [Example 22, (R)-(1-(3-(([1,1′-biphenyl]-3-ylmethyl)amino)-3-oxopropionamido)-2-(benzofuran-3-yl)ethyl)boric acid], for which the IC50 (in assay [1]; in assay [2]; with MM.1S cell strain) was ≤ 50 nM in each case.
